How the values were obtained:
Format in all cases: cell-based, mouse
RAW264.7 cells = assay: MTT cell viability (cytotoxicity) assay; conditions: 24 h incubation, concentration inhibiting 10% of cell proliferation, improved Karber methodology, defined as highest noncytotoxic concentration
Procedure: (§1) The mouse macrophage-derived RAW264.7 cell line was purchased from Sun Yat-Sen University, Guangzhou, China, and maintained at 37°C in a humidified atmosphere containing 5% CO2 in Dulbecco's modified eagle medium (DMEM) supplemented with 10% heat-inactivated fetal bovine serum (FBS), penicillin (100 U/mL), and streptomycin (100 μg/mL). Cells in exponential growth phase were used for experiments.
The cytotoxicity of the isolated compounds toward RAW264.7 was evaluated by a conventional MTT assay as reported previously. RAW264.7 cells (1 × 10^5 cells/well) were inoculated to 96-well plates and incubated for 12 h and then treated with different concentrations of compounds. After additional 24 h incubation, 10 μL of MTT solution ([…]) was added to each well, and the plate was incubated for another 4 h. The medium was discarded and 150 μL of dimethyl sulfoxide (DMSO) was added to each well, solubilizing formazan. After 15 min incubation, absorbance at 570 nm was read using a microplate reader. The percent viability was calculated using the following formula: (1) Cell viability%=[…].
The anti-inflammatory activities of the isolates were tested in vitro for inhibiting the NO and TNF-α production in LPS-induced RAW264.7 cells. Firstly, the cytotoxicity of these compounds cells on the proliferation of RAW264.7 cells was measured by MTT assay. The IC10 value of each compound (Table 1), at which 10% of cells proliferation was inhibited, was calculated with an improved Karber methodology and defined as the highest noncytotoxic concentration. While the dose is ≤IC10, the effect of the isolated compound on RAW264.7 cells could be neglected. In the following experiments, the concentrations of each compound were set at [IC10] × 1, [IC10] × 10^−1, and [IC10] × 10^−2 levels.

[1] = test system: NO production in LPS-induced RAW264.7 cells; assay: Nitric oxide production in LPS-induced RAW264.7 cells (Griess assay); conditions: for inhibitory effect on LPS-induced NO production (in words): compounds at [IC10] × 1, × 10^−1, × 10^−2
Procedure: as §1
Nitrite accumulation, as an indicator of NO production in the culture medium, was measured with the Griess reagent as reported previously. RAW264.7 cells were plated into 96-well plate at a density of 3 × 10^6 cells/mL. After 12 h incubation, cells were stimulated by LPS (100 ng/mL) with or without samples for 24 h. Subsequently, the supernatant (100 μL) was harvested and mixed with an equal volume of Griess reagent (0.1% N-(1-naphthyl) ethylenediamine dihydrochloride, 1% sulfanilamide, and 2.5% H3PO4) and stood for 15 min at room temperature in the dark. NO production was determined by measuring absorbance at 540 nm and was converted to nitrite concentration by reference to a standard curve generated with sodium nitrite.
Figure 1 Effects of ethanol extract of S. glabra (ESG) and its four subfractions (ESG-1, ESG-2, ESG-3, and ESG-4) on RAW264.7 cells viability and LPS-induced NO production. Cells viability (a) was tested by MTT assay; higher value of optical density at 490 nm means higher cell viability. Nitrite accumulated in cell culture supernatants was determined by Griess assay as an index for NO release (b). Cells were treated with LPS (1 μg/mL) for 24 h in the absence or presence of samples (1.6, 8.0, 40, and 200.0 μg/mL). The data were presented as mean ± S.D. (n = 5). Dexamethasone (DMS) was employed as a positive control. # and ###, respectively, mean P < 0.05 and P < 0.001 compared with control group. ∗, ∗∗, and ∗∗∗, respectively, mean P < 0.05, P < 0.01, and P < 0.001 compared with group treated with LPS alone.
(§2) Figure 4 The inhibitory effects of the isolated compounds on NO (a) and TNF-α (b) productions in LPS-induced RAW264.7 cells. Cells were seeded into 24-well plates and incubated for 12 h and then treated with or without different concentrations of compounds for 24 h (for NO) or […] (for TNF-α). The culture supernatant was analyzed for nitrite and TNF-α production. Results shown are representative of three separate experiments.

[2] = test system: TNF-α production in LPS-induced RAW264.7 cells; assay: TNF-α production in LPS-induced RAW264.7 cells (ELISA); conditions: for IC50: Mus musculus, LPS-induced RAW264.7 cells; for inhibitory effect on LPS-induced TNF-α production (in words): RAW264.7 cells, compounds at [IC10] × 1, × 10^−1, × 10^−2
Procedure: as §1
RAW264.7 cells (3 × 10^6 cells/mL) were seeded onto 24-well culture plate and incubated for 12 h. The cells were then pretreated with various concentrations of the isolated compounds for 2 h before stimulation with LPS (100 ng/mL) with or without samples for 12 h. Supernatants were then collected and the TNF-α concentrations in the medium were determined using commercially available ESISA kits according to the manufacturer's instructions as described in previous study.
as §2

| Structure (SMILES) | IC10 values (RAW264.7 cells) [µM] | inhibitory effect on LPS-induced NO production (in words) [1] | IC50 [2] [µM] | inhibitory effect on LPS-induced TNF-α production (in words) [2] | other results |
| --- | --- | --- | --- | --- | --- |
| COc1cc([C@H]2OC[C@H]3[C@@H]2CO[C@@H]3c2cc(OC)c(O)c(OC)c2)cc(OC)c1O [Comp. 1, syringaresinol] | 23.9 ± 1.8 | moderate suppression effects | < 2.3 | high inhibitory effects | – |
| COc1cc(O)cc2c1C(=O)O[C@@H](C)CCCCCCC2 [Comp. 2, lasiodiplodin] | 147.9 ± 15.4 | moderate suppression effects | – | – | – |
| CC1CCCCCCCc2cc(O)cc(O)c2C(=O)O1 (centres unmarked) [Comp. 3, de-O-methyllasiodiplodin] | 154.3 ± 20.5 | moderate suppression effects | – | – | – |
| COc1cc(C(=O)O)cc(OC)c1O [Comp. 4, syringic acid] | 5.1 ± 4.2 | significant inhibitory effects | – | – | inhibition at 0.5 µM ([1]; Mus musculus, compound at 0.5 μM): ~19%; inhibition at 5.1 µM ([1]; Mus musculus, compound at 5.1 μM): ~25% |
| COc1cc(C(O)C(CO)C(CO)C(O)c2cc(OC)c(O)c(OC)c2)cc(OC)c1O (centres unmarked) [Comp. 5, 1,4-bis(4-hydroxy-3,5-dimethoxyphenyl)-2,3-bis(hydroxymethyl)-1,4-butanediol] | 166.0 ± 9.7 | moderate suppression effects | < 16.6 | high inhibitory effects | – |
| COc1cc(C2c3c(cc(OC)c(O)c3OC)CC(CO)C2CO)cc(OC)c1O (centres unmarked) [Comp. 6, lyoniresinol] | 238.1 ± 31.6 | lowest inhibitory effects | – | – | inhibition at 238.1 µM ([1]; Mus musculus, compound at level of IC10, 238.1 μM): 32.7% |
| Oc1ccc(/C=C/c2cc(O)cc(O)c2)cc1 [Comp. 7, trans-resveratrol] | 4.4 ± 5.7 | significant inhibitory effects | < 4.4 | high inhibitory effects | inhibition at 0.4 µM ([1]; Mus musculus, compound at 0.4 μM): ~32%; inhibition at 4.4 µM ([1]; Mus musculus, compound at 4.4 μM): ~48% |
| COC(=O)/C=C/c1ccc(O)c(O)c1 [Comp. 8, trans-caffeic acid methyl ester] | 5.2 ± 3.2 | – | – | – | – |
| O=C1c2c(O)cc(O)cc2O[C@H](c2ccc(O)cc2)[C@H]1O [Comp. 9, dihydrokaempferol] | 139.4 ± 10.3 | lowest inhibitory effects | – | – | inhibition at 139.4 µM ([1]; Mus musculus, compound at level of IC10, 139.4 μM): 21.3% |

From article PMC4363603, “Inhibitory Effects of Chemical Compounds Isolated from the Rhizome of Smilax glabra on Nitric Oxide and Tumor Necrosis Factor-α Production in Lipopolysaccharide-Induced RAW264.7 Cell” (Evidence-based Complementary and Alternative Medicine : eCAM, 2015)
